# Earlier results in PubChem BioAssay AID1259409 (Chemical Carcinogenesis Research Information System (CCRIS), 2018).
# “And” between values parts separate entries of the source, which are not always exact repeats. Equal entries are not always repeated.
# Tested on: rodent chemically induced tumor inhibition, incidence and multiplicity
# Experiment: CCRIS tumor inhibitor studies
compound,measurement,setting,value
NCCCC(N)(C(=O)O)C(F)F (centres undefined),"tumour outcome (control, treated, inhibition, significance)","Carcinogen: DIETHYLNITROSAMINE, 55-18-5, Dose [Inhibitor]: 0, 600 MG/KG BW BY INTRAPERITONEAL INJECTION ON DAYS 13, 14 AND 15 OF AGE THEN 4 G/KG DIET FROM 21 TO 161 DAYS OF AGE (S, Route [Inhibitor]: INTRAPERITONEAL, ORAL, Species: MOUSE, Strain/Sex: C3H/MALE, Target Tissue: Type of Lesion: LIVER: ADENOMA, Dose [Carcinogen]: 4 MG/KG IN TRICAPRYLIN ONCE ON DAY 15 OF AGE, Promoter: NONE USED","100%, 100%, 0%, not significant"
same,"tumour outcome (control, treated, inhibition, significance)","Carcinogen: DIETHYLNITROSAMINE, 55-18-5, Dose [Inhibitor]: 0, 1600 MG/KG DIET FOR DURATION OF STUDY BEGINNING 1 WK PRIOR TO CARCINOGEN TREATMENT (STUDY DURATION: 25 WK), Route [Inhibitor]: ORAL, Species: HAMSTER, Strain/Sex: SYRIAN/MALE, Target Tissue: Type of Lesion: LUNG: CARCINOMA, Dose [Carcinogen]: 17.8 MG/KG BW 2/WK FOR 20 WK, Promoter: NONE USED","50%, 41%, 18%, not significant"
same,"tumour outcome (control, treated, inhibition, significance)","Carcinogen: DIETHYLNITROSAMINE, 55-18-5, Dose [Inhibitor]: 0, 1600 MG/KG DIET FOR DURATION OF STUDY BEGINNING 1 WK PRIOR TO CARCINOGEN TREATMENT (STUDY DURATION: 25 WK), Route [Inhibitor]: ORAL, Species: HAMSTER, Strain/Sex: SYRIAN/MALE, Target Tissue: Type of Lesion: TRACHEA: PAPILLOMA, Dose [Carcinogen]: 17.8 MG/KG BW 2/WK FOR 20 WK, Promoter: NONE USED","95%, 83%, 13%, not significant"
same,"tumour outcome (control, treated, inhibition, significance)","Carcinogen: DIETHYLNITROSAMINE, 55-18-5, Dose [Inhibitor]: 0, 3200 MG/KG DIET FOR DURATION OF STUDY BEGINNING 1 WK PRIOR TO CARCINOGEN TREATMENT (STUDY DURATION: 25 WK), Route [Inhibitor]: ORAL, Species: HAMSTER, Strain/Sex: SYRIAN/MALE, Target Tissue: Type of Lesion: LUNG: CARCINOMA, Dose [Carcinogen]: 17.8 MG/KG BW 2/WK FOR 20 WK, Promoter: NONE USED","60%, 47%, 22%, not significant"
same,"tumour outcome (control, treated, inhibition, significance)","Carcinogen: DIETHYLNITROSAMINE, 55-18-5, Dose [Inhibitor]: 0, 3200 MG/KG DIET FOR DURATION OF STUDY BEGINNING 1 WK PRIOR TO CARCINOGEN TREATMENT (STUDY DURATION: 25 WK), Route [Inhibitor]: ORAL, Species: HAMSTER, Strain/Sex: SYRIAN/MALE, Target Tissue: Type of Lesion: TRACHEA: PAPILLOMA, Dose [Carcinogen]: 17.8 MG/KG BW 2/WK FOR 20 WK, Promoter: NONE USED","100%, 95%, 5%, not significant"
same,"tumour outcome (control, treated, inhibition, significance)","Carcinogen: METHYLAZOXYMETHANOL ACETATE, 592-62-1, Dose [Inhibitor]: 0, 0.1% IN DRINKING WATER FOR 25 WK BEGINNING 15 WK POST INITIAL CARCINOGEN DOSE (STUDY DURATION: 40 WK), Route [Inhibitor]: ORAL, Species: RAT, Strain/Sex: F344/MALE, Target Tissue: Type of Lesion: LARGE INTESTINE: ADENOCARCINOMA, Dose [Carcinogen]: 20 MG/KG BW 1/WK FOR 3 WK, Promoter: 1,2-DIMETHYLHYDRAZINE, 540-73-8","16/26 (62%), 11/28 (39%), 37%, not significant"
same,"tumour outcome (control, treated, inhibition, significance)","Carcinogen: METHYLAZOXYMETHANOL ACETATE, 592-62-1, Dose [Inhibitor]: 0, 0.1% IN DRINKING WATER FOR 25 WK BEGINNING 15 WK POST INITIAL CARCINOGEN DOSE (STUDY DURATION: 40 WK), Route [Inhibitor]: ORAL, Species: RAT, Strain/Sex: F344/MALE, Target Tissue: Type of Lesion: SMALL INTESTINE: ADENOCARCINOMA, Dose [Carcinogen]: 20 MG/KG BW 1/WK FOR 3 WK, Promoter: 1,2-DIMETHYLHYDRAZINE, 540-73-8","8/26 (31%), 8/25 (29%), 6%, not significant"
same,"tumour outcome (control, treated, inhibition, significance)","Carcinogen: N-BUTYL-N(4-HYDROXYBUTYL)NITROSAMINE, 3817-11-6, Dose [Inhibitor]: 0, 640 MG/KG DIET FOR 6 MO BEGINNING 1 WK PRIOR TO CARCINOGEN TREATMENT (STUDY DURATION: 6 MO), Route [Inhibitor]: ORAL, Species: MOUSE, Strain/Sex: BDF/MALE, Target Tissue: Type of Lesion: URINARY BLADDER: CARCINOMA, Dose [Carcinogen]: 7.5 MG IN 0.1 ML ETHANOL:WATER (20:80) 1/WK FOR 8 WK, Promoter: NONE USED","27/70 (39%), 21/72 (29%), 26%, not calculated"
same,"tumour outcome (control, treated, inhibition, significance)","Carcinogen: N-BUTYL-N-(4-HYDROXYBUTYL)NITROSAMINE, 3817-11-6, Dose [Inhibitor]: 0, 600 MG/KG DIET BEGINNING 1 WK PRIOR TO CARCINOGEN TREATMENT AND CONTINUING FOR DURATION OF STUDY (STUDY DURATION: 180, Route [Inhibitor]: ORAL, Species: MOUSE, Strain/Sex: BDF/MALE, Target Tissue: Type of Lesion: BLADDER: CARCINOMA, Dose [Carcinogen]: 7.5 MG IN 0.1 ML OF ETHANOL:WATER (20:80) 1/WK FOR 8 WK, Promoter: NONE USED","25/63 (40%), 17/72 (24%), 40%, p<0.05"
same,"tumour outcome (control, treated, inhibition, significance)","Carcinogen: N-BUTYL-N-(4-HYDROXYBUTYL)NITROSAMINE, 3817-11-6, Dose [Inhibitor]: 0, 1200 MG/KG DIET BEGINNING 1 WK PRIOR TO CARCINOGEN TREATMENT AND CONTINUING FOR DURATION OF STUDY (STUDY DURATION: 18, Route [Inhibitor]: ORAL, Species: MOUSE, Strain/Sex: BDF/MALE, Target Tissue: Type of Lesion: BLADDER: CARCINOMA, Dose [Carcinogen]: 7.5 MG IN 0.1 ML OF ETHANOL:WATER (20:80) 1/WK FOR 8 WK, Promoter: NONE USED","28/65 (43%), 14/65 (22%), 49%, p<0.01"
same,"tumour outcome (control, treated, inhibition, significance)","Carcinogen: N-BUTYL-N-(4-HYDROXYBUTYL)NITROSAMINE, 3817-11-6, Dose [Inhibitor]: 0, 1280 MG/KG DIET FOR 6 MO BEGINNING 1 WK PRIOR TO CARCINOGEN TREATMENT (STUDY DURATION: 6 MO), Route [Inhibitor]: ORAL, Species: MOUSE, Strain/Sex: BDF/MALE, Target Tissue: Type of Lesion: URINARY BLADDER: CARCINOMA, Dose [Carcinogen]: 7.5 MG IN 0.1 ML ETHANOL:WATER (20:80) 1/WK FOR 8 WK, Promoter: NONE USED","30/73 (41%), 15/73 (21%), 49%, p<0.01"
same,"tumour outcome (control, treated, inhibition, significance)","Carcinogen: N-BUTYL-N-(4-HYDROXYBUTYL)NITROSOAMINE, 3817-11-6, Dose [Inhibitor]: 0.2% IN DRINKING WATER BEGINNING POST CARCINOGEN DOSE AND CONTINUING FOR 40 WK FOLLOWED BY TAP WATER FOR DURATION OF STU, Route [Inhibitor]: ORAL, Species: RAT, Strain/Sex: F344/MALE, Target Tissue: Type of Lesion: URINARY BLADDER: CARCINOMA, Dose [Carcinogen]: 0.05% IN DRINKING WATER FOR 6 WK, Promoter: NONE USED","19/19 (100%), 16/18 (89%), 11%, not significant and 24/24 (100%), 23/25 (92%), 8%, not significant"
same,"tumour outcome (control, treated, inhibition, significance)","Carcinogen: N-BUTYL-N-(4-HYDROXYBUTYL)NITROSOAMINE, 3817-11-6, Dose [Inhibitor]: 0.2% IN DRINKING WATER BEGINNING POST CARCINOGEN DOSE AND CONTINUING FOR DURATION OF STUDY (STUDY DURATION: 75 WK), Route [Inhibitor]: ORAL, Species: RAT, Strain/Sex: F344/MALE, Target Tissue: Type of Lesion: URINARY BLADDER: CARCINOMA, Dose [Carcinogen]: 0.05% IN DRINKING WATER FOR 6 WK, Promoter: NONE USED","16/25 (64%), 11/24 (46%), 28%, not significant (at 40 wk post carcinogen dose) and 19/19 (100%), 12/19 (63%), 37%, p<0.017 (at 60 wk post carcinogen dose) and 24/24 (100%), 19/20 (95%), 5%, not significant (at 75 wk post carcinogen dose)"
same,"tumour outcome (control, treated, inhibition, significance)","Carcinogen: N-ETHYL-N-NITROSOUREA, 759-73-9, Dose [Inhibitor]: 0, 250 MG/KG DIET FOR DURATION OF STUDY BEGINNING POST CARCINOGEN DOSE (STUDY DURATION: 35 WK), Route [Inhibitor]: ORAL, Species: MOUSE, Strain/Sex: PIM/MALE, Target Tissue: Type of Lesion: LYMPHATIC SYSTEM: LYMPHOMA, Dose [Carcinogen]: 50 MG/KG BW ONCE, Promoter: NONE USED","21/40 (53%), 15/29 (52%), 2%, not significant"
